Measurements from patent US9682976B2, “Protein kinase C inhibitors and uses thereof” (Rigel Pharmaceuticals, Inc., priority 2012, dated 2017).

tested on: PKC mediated IL-2 production; assay: IL-2 ELISA, human primary T cell, anti CD3+CD28+; format: cell-based; details: Homo sapiens, T-cell, 24 h, human primary T cells stimulated with αCD3 and αCD28, 24 hours
Summary of the method: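 Human peripheral blood T cells, pre-expanded with αCD3/αCD28 and IL-2 and then washed free of IL-2, were pre-incubated with compound for 1 h at 37° C. They were then stimulated on plates coated with […] αCD3 and 5 μg/ml αCD28, or with 0.5 ng/ml PMA plus 0.1 uM ionomycin in the counter assay. IL-2 in supernatants was measured by ELISA after 24 h.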

| EC50 [nM] | Compound |
| --- | --- |
| 100 to 500 | COCCOc1cc(F)c(Nc2ncc(F)c(N[C@@H]3C[C@@H]4CCCN4C(C)(C)C3)n2)cc1-n1nnn(C)c1=O [Compound 158, 1-(5-((4-(((7R,8aS)-5,5-dimethyloctahydroindolizin-7-yl)amino)-5-fluoropyrimidin-2-yl)amino)-4-fluoro-2-(2-methoxyethoxy)phenyl)-4-methyl-1,4-dihydro-5H-tetrazol-5-one] |
| 100 to 500 | Cn1nnn(-c2cc(Nc3ncc(F)c(N[C@@H]4C[C@@H]5CCCN5C(C)(C)C4)n3)c(F)cc2OCC2(C)COC2)c1=O [Compound 159, 1-(5-((4-(((7R,8aS)-5,5-dimethyloctahydroindolizin-7-yl)amino)-5-fluoropyrimidin-2-yl)amino)-4-fluoro-2-((3-methyloxetan-3-yl)methoxy)phenyl)-4-methyl-1,4-dihydro-5H-tetrazol-5-one] |
| 1000 to 10000 | COCCOc1ccc(Nc2ncc(F)c(N[C@@H]3C[C@@H]4CCCN4C(C)(C)C3)n2)c(F)c1OCCOC [Compound 160, N4-((7R,8aS)-5,5-dimethyloctahydroindolizin-7-yl)-5-fluoro-N2-(2-fluoro-3,4-bis(2-methoxyethoxy)phenyl)pyrimidine-2,4-diamine] |
| 500 to 1000 | COc1cc(Nc2ncc(F)c(N[C@@H]3C[C@@H]4CCCN4C(C)(C)C3)n2)cc(OC)c1 [Compound 161, N2-(3,5-dimethoxyphenyl)-N4-((7R,8aS)-5,5-dimethyloctahydroindolizin-7-yl)-5-fluoropyrimidine-2,4-diamine] |
| 100 to 500 | COc1cc(Nc2ncc(Cl)c(N[C@@H]3C[C@@H]4CCCN4C(C)(C)C3)n2)cc(OC)c1 [Compound 162, 5-chloro-N2-(3,5-dimethoxyphenyl)-N4-((7R,8aS)-5,5-dimethyloctahydroindolizin-7-yl)pyrimidine-2,4-diamine] |
| < 100 | CC1(C)C[C@H](Nc2nc(Nc3ccc(F)c(-n4nnnc4C4CC4)c3)ncc2Cl)C[C@@H]2CCCN21 [Compound 163, 5-chloro-N2-(3-(5-cyclopropyl-1H-tetrazol-1-yl)-4-fluorophenyl)-N4-((7R,8aS)-5,5-dimethyloctahydroindolizin-7-yl)pyrimidine-2,4-diamine] |
| < 100 | CC1(C)C[C@H](Nc2nc(Nc3cc(-n4nnnc4C4CC4)ccc3F)ncc2Cl)C[C@@H]2CCCN21 [Compound 164, 5-chloro-N2-(5-(5-cyclopropyl-1H-tetrazol-1-yl)-2-fluorophenyl)-N4-((7R,8aS)-5,5-dimethyloctahydroindolizin-7-yl)pyrimidine-2,4-diamine] |
| 500 to 1000 | Cn1nnn(-c2cc(Nc3ncc(F)c(N[C@@H]4C[C@@H]5CCCN5C(C)(C)C4)n3)c(F)cc2OCC2(CO)COC2)c1=O [Compound 165, 1-(5-((4-(((7R,8aS)-5,5-dimethyloctahydroindolizin-7-yl)amino)-5-fluoropyrimidin-2-yl)amino)-4-fluoro-2-((3-(hydroxymethyl)oxetan-3-yl)methoxy)phenyl)-4-methyl-1,4-dihydro-5H-tetrazol-5-one] |

More lines, now with the values behind:

| Compound | EC50 [nM] |
| --- | --- |
| CC1(C)C[C@H](Nc2nc(Nc3ccc(Cl)c(-n4nnnc4C4CC4)c3)ncc2F)C[C@@H]2CCCN21 [Compound 145, N2-(4-chloro-3-(5-cyclopropyl-1H-tetrazol-1-yl)phenyl)-N4-((7R,8aS)-5,5-dimethyloctahydroindolizin-7-yl)-5-fluoropyrimidine-2,4-diamine] | < 100 |
| CC1(C)C[C@H](Nc2nc(Nc3cc(-n4cnnn4)c(C4CC4)cc3F)ncc2Cl)C[C@@H]2CCCN21 [Compound 146, 5-chloro-N2-(4-cyclopropyl-2-fluoro-5-(1H-tetrazol-1-yl)phenyl)-N4-((7R,8aS)-5,5-dimethyloctahydroindolizin-7-yl)pyrimidine-2,4-diamine] | < 100 |
| Cc1ccc(Nc2ncc(Cl)c(N[C@@H]3C[C@@H]4CCCN4C(C)(C)C3)n2)cc1-n1cnnn1 [Compound 147, 5-chloro-N4-((7R,8aS)-5,5-dimethyloctahydroindolizin-7-yl)-N2-(4-methyl-3-(1H-tetrazol-1-yl)phenyl)pyrimidine-2,4-diamine] | < 100 |
| Cn1nnn(-c2cc(Nc3ncc(Cl)c(N[C@@H]4C[C@@H]5CCCN5C(C)(C)C4)n3)c(F)cc2C2CC2)c1=O [Compound 148, 1-(5-((5-chloro-4-(((7R,8aS)-5,5-dimethyloctahydroindolizin-7-yl)amino)pyrimidin-2-yl)amino)-2-cyclopropyl-4-fluorophenyl)-4-methyl-1,4-dihydro-5H-tetrazol-5-one] | < 100 |
| Cc1nnnn1-c1cc(Nc2ncc(Cl)c(N[C@@H]3C[C@@H]4CCCN4C(C)(C)C3)n2)ccc1F [Compound 149, 5-chloro-N4-((7R,8aS)-5,5-dimethyloctahydroindolizin-7-yl)-N2-(4-fluoro-3-(5-methyl-1H-tetrazol-1-yl)phenyl)pyrimidine-2,4-diamine] | < 100 |
| Cc1nnnn1-c1ccc(F)c(Nc2ncc(Cl)c(N[C@@H]3C[C@@H]4CCCN4C(C)(C)C3)n2)c1 [Compound 150, 5-chloro-N4-((7R,8aS)-5,5-dimethyloctahydroindolizin-7-yl)-N2-(2-fluoro-5-(5-methyl-1H-tetrazol-1-yl)phenyl)pyrimidine-2,4-diamine] | < 100 |
| COc1ccc(Nc2ncc(Cl)c(N[C@@H]3C[C@@H]4CCCN4C(C)(C)C3)n2)cc1-n1nnnc1C [Compound 151, 5-chloro-N4-((7R,8aS)-5,5-dimethyloctahydroindolizin-7-yl)-N2-(4-methoxy-3-(5-methyl-1H-tetrazol-1-yl)phenyl)pyrimidine-2,4-diamine] | < 100 |
| COc1cc(Nc2ncc(Cl)c(N[C@@H]3C[C@@H]4CCCN4C(C)(C)C3)n2)cc(-n2nnnc2C)c1 [Compound 152, 5-chloro-N4-((7R,8aS)-5,5-dimethyloctahydroindolizin-7-yl)-N2-(3-methoxy-5-(5-methyl-1H-tetrazol-1-yl)phenyl)pyrimidine-2,4-diamine] | < 100 |
| CC1(C)C[C@H](Nc2nc(Nc3cccc(C#N)c3)ncc2Cl)C[C@@H]2CCCN21 [Compound 153, 3-((5-chloro-4-(((7R,8aS)-5,5-dimethyloctahydroindolizin-7-yl)amino)pyrimidin-2-yl)amino)benzonitrile] | 100 to 500 |
| Cc1ccc(Nc2ncc(Cl)c(N[C@@H]3C[C@@H]4CCCN4C(C)(C)C3)n2)cc1C#N [Compound 154, 5-((5-chloro-4-(((7R,8aS)-5,5-dimethyloctahydroindolizin-7-yl)amino)pyrimidin-2-yl)amino)-2-methylbenzonitrile] | < 100 |
| CC1(C)C[C@H](Nc2nc(Nc3ccc(C4CC4)c(C#N)c3)ncc2Cl)C[C@@H]2CCCN21 [Compound 155, 5-((5-chloro-4-(((7R,8aS)-5,5-dimethyloctahydroindolizin-7-yl)amino)pyrimidin-2-yl)amino)-2-cyclopropylbenzonitrile] | < 100 |
| COc1cc(Nc2ncc(F)c(N[C@@H]3C[C@@H]4CCCN4C(C)(C)C3)n2)cc(OC)c1OC [Compound 156, N4-((7R,8aS)-5,5-dimethyloctahydroindolizin-7-yl)-5-fluoro-N2-(3,4,5-trimethoxyphenyl)pyrimidine-2,4-diamine] | 1000 to 10000 |
| CC1(C)Oc2ccc(Nc3ncc(F)c(N[C@@H]4C[C@@H]5CCCN5C(C)(C)C4)n3)cc2O1 [Compound 157, N2-(2,2-dimethylbenzo[d][1,3]dioxol-5-yl)-N4-((7R,8aS)-5,5-dimethyloctahydroindolizin-7-yl)-5-fluoropyrimidine-2,4-diamine] | 1000 to 10000 |
